Laboratory results reported in patent US8992985B2, “Core-shell magnetic particles and related methods” (priority 2010, dated 2015).
Read-outs that look alike come from different tables or passages of the source.

What was measured:
[1] = system: Salmonella enterica ATCC 13311; assay: Broth microdilution MIC assay; type: cell-based; settings: S. enterica (−); LB broth, 37° C
From the text: (§1) The following microorganisms were used (American Type Culture Collection (ATCC), Manassas, Vir., or La Colección Española de Cultivos Tipo (CECT), Valencia, Spain): Gram-positive bacteria Staphylococcus aureus ATCC 25923 and ATCC 6538, Staphylococcus epidermidis CECT 4184, Lactococcus lactis ATCC 7963, Streptococcus phocae ATCC51973, Lactococcus garvieae ATCC2155, Gram-negative bacteria Pseudomonas aeruginosa CECT 110 and ATCC 15692, Escherichia coli ATCC 11229, and Salmonella enterica ATCC 13311. The bacteria were grown at 37° C. in Luria-Bertani (LB) broth (Sigma-Aldrich Chemical Co.) (pH 7.3), which was also used for dilutions. The […] inhibitory concentration (MIC) values of PHMBG and the particles were determined in vitro using a broth microdilution assay. The polymer or nanoparticles were dissolved or dispersed, respectively, with brief sonication; into small stock samples of sterile deionized water (10 mL, 3 mg/mL). Serial dilutions between 5 and 300 mg/L final concentration in the liquid medium were dispensed into sterile 96-well polystyrene culture Corning® Costar® cell plates (Sigma-Aldrich Chemical Co.). The diluted samples were inoculated with a suspension of the test bacterium on the liquid medium to a final concentration of approximately 10^4 cfu/mL. The MIC was defined as the lowest concentration of PHMBG polymer, PHMBG-PEI-M or PHMBG-M/SiO2 particles that inhibited bacterial growth after […] at 37° C. Measurements were conducted in triplicate. The precision of the MIC values was limited by the dilution factor and was estimated to be ±5 mg/L, Negative control experiments were conducted with the dilutions without bactericidal additives and no reduction in bacterial counts after 24 h was observed.
(§2) For testing the antiseptic properties of the core-shell magnetic nanoparticles of the invention, five Gram-positive and three Gram-negative bacteria were chosen to represent a wide range of waterborne microorganisms, all of which are pathogenic with the exception of L. lactis, which is extensively used in buttermilk and cheese production. Gram-positive S. aureus and S. epidermidis are well-known human pathogens; S. phocae is a fish and seal pathogen; and L. garvieae causes septicemic infections of fish and is the main risk factor for the Mediterranean European trout industry. […] Both PHMBG-M/SiO2 (t) and PHMBG-M/SiO2 (s) particle species were tested, as well as PHMBG solutions and PHMBG-PEI-M particle suspensions.

[2] = system: Escherichia coli ATCC 11229; assay: Broth microdilution MIC assay; type: cell-based; settings: E. coli (−); LB broth, 37° C
From the text: as §1, §2

[3] = system: Lactococcus lactis ATCC 7963; assay: Broth microdilution MIC assay; type: cell-based; settings: L. lactis (+); LB broth, 37° C
From the text: as §1, §2

[4] = system: Staphylococcus epidermidis CECT 4184; assay: Broth microdilution MIC assay; type: cell-based; settings: S. epidermidis (+); LB broth, 37° C
From the text: as §1, §2

Staphylococcus aureus = assay: Broth microdilution MIC assay; type: cell-based; settings: S. aureus (+); LB broth, 37° C
From the text: as §1, §2

Pseudomonas aeruginosa = assay: Broth microdilution MIC assay; type: cell-based; settings: P. aeruginosa (−); LB broth, 37° C
From the text: as §1, §2

[5] = system: Lactococcus garvieae ATCC2155; assay: Broth microdilution MIC assay; type: cell-based; settings: L. garvieae (+); LB broth, 37° C
From the text: as §1, §2

[6] = system: Streptococcus phocae ATCC51973; assay: Broth microdilution MIC assay; type: cell-based; settings: S. phocae (+); LB broth, 37° C
From the text: as §1, §2

[7] = in aquatic organisms; cited from earlier work
[8] = in human blood; cited from earlier work

Poly(hexamethylene biguanide) [PHMBG]
Minimum inhibitory concentrations (MIC) [1]: 110 µg/mL
Minimum inhibitory concentrations (MIC) [2]: 5 µg/mL
Minimum inhibitory concentrations (MIC) [3]: 20 µg/mL
Minimum inhibitory concentrations (MIC) [4]: 0.5 µg/mL
Minimum inhibitory concentrations (MIC) (Staphylococcus aureus): 5 µg/mL
Minimum inhibitory concentrations (MIC) (Pseudomonas aeruginosa): 30 µg/mL
Minimum inhibitory concentrations (MIC) [5]: 40 µg/mL
Minimum inhibitory concentrations (MIC) [6]: 1.6 µg/mL

[CH3][Hg][Cl] [methylmercury]
half-life [7]: about 72 days
half-life [8]: about 50 days
